In patent US20240287037A1, “CYCLOALKYL COMPOUNDS AND PHARMACEUTICAL COMPOSITIONS THAT MODULATE IKZF2” (Plexium, Inc., priority 2021, published 2024):
Read-outs that look alike come from different tables or passages of the source.

Key:
GSPT1 = GSPT1 (Homo sapiens (Human), UniProt P15170+Q96SW2); assay: GSPT1 reporter degradation assay (HEK293 hGSPT1 HiBiT-tagged cells); assay type: cell-based; details: 24 hour incubation
Method: HEK293_hGSPT1_HiBiT-tagged cells were generated using CRISPR-Cas12a technology. Briefly, ˜400,000 HEK293 cells were transiently co-transfected with precomplexed ribonuclear proteins (RNPs) consisting of […] of crRNA (IDT), […] of Cas12a protein (IDT), 3 μg of ssODN donor (IDT; AltRTM modifications), 78 pmol of electroporation enhancer (IDT), and 200 ng of pMaxGFP (Lonza). The transfection was performed via nucleofection (Lonza, 4D-Nucleofector X-unit) using solution P3 and program CM-130 in a (20 μL) cuvette. Five days post-nucleofection, cells were single-cell-sorted for GFP+ (transfected) cells by FACs in 96-well plates and clonally selected. Clones were screened and verified for the desired modification via targeted deep sequencing using gene-specific primers with partial Illumina adapter overhangs as previously described. In brief, clonal cell pellets were harvested, lysed, and used to generate gene-specific amplicons with partial Illumina adapters in PCR #1. Amplicons were indexed in PCR #2 and pooled with other targeted amplicons for other loci to create sequence diversity. Additionally, 10% PhiX sequencing control V3 (Illumina) was added to the pooled amplicon library prior to running the sample on a Miseq Sequencer System (Illumina) to generate paired 2×250 bp reads. Samples were demultiplexed using the index sequences, fastq files were generated, and NGS analysis was performed using CRIS.py.
The GSTP1 degradation assay was carried out by harvesting the HEK 293T reporter cell lines and resuspending the cells in media formulated for reduced background fluorescence (FluoroBrite; Thermo Fisher). The respective cell lines were seeded at a density of 8,000 cells/well into white-opaque 384-well optical grade assay tissue culture plates (Greiner 781080-20). The cells were incubated overnight at 37° C. to allow for attachment to the assay plate. Dilutions of the compounds were prepared in DMSO from 10 mM compound stocks. […] Plates were centrifuged at 320×g for 2 minutes at room temperature, and subsequently incubated at 37° C.
After 24 hour incubation with the compounds, the plates were allowed to cool to room temperature for 10 minutes. 30 μL of HiBiT lytic buffer+1:50 HiBiT substrate Solution were added to each well. Plates were centrifuged at 320×g for 2 minutes at room temperature and then incubated with shaking at room temperature for 10 minutes covered with foil. Plates were read on a CLARIOstar microplate reader (BMG LabTech), measuring at 450 nm (donor emission) and 610 nm or 630 nm (acceptor emission). The DC50 values were determined by regression to best fit four-parameter logistic curves using GraphPad Prism.

IKZF2 (Helios) = IKZF2 (Helios) (Homo sapiens (Human), UniProt Q96SW2+Q9UKS7); assay: IKZF2 reporter degradation assay (HEK 293T IKZF2-mNeonGreen reporter cell line); assay type: cell-based; details: 24 hour incubation; for inhibition at 1 µM: HEK-293T, 24 h
Sequence of IKZF2 (Helios) (Q9UKS7 whole entry, the tested form may be a part): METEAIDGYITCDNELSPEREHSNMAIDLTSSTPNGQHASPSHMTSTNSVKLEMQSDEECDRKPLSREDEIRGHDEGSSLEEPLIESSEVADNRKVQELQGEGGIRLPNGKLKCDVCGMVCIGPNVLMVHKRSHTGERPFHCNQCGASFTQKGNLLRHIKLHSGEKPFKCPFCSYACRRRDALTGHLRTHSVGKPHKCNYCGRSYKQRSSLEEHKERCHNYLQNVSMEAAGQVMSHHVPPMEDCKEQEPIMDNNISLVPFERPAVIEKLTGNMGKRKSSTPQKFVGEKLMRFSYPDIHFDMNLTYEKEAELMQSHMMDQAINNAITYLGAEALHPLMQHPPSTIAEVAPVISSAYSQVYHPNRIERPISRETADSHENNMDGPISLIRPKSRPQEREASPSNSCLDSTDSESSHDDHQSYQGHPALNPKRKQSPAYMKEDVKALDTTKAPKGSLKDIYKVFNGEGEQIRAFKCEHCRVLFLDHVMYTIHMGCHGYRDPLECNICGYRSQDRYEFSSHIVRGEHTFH
Sequence of IKZF2 (Helios) (Q96SW2 whole entry, the tested form may be a part): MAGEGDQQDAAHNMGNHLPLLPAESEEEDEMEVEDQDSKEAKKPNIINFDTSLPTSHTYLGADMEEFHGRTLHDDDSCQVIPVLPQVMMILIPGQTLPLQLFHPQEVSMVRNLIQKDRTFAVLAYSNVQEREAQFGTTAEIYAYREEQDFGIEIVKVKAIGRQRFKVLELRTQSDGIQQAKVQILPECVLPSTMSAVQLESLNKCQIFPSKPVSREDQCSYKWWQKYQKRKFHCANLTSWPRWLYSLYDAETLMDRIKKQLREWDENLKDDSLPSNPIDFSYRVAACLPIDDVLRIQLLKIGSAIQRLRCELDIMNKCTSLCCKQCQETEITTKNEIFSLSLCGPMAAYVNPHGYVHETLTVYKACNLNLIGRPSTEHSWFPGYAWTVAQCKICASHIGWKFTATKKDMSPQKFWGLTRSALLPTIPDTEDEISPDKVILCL
Sequence of IKZF2 (Helios) (Q16531 whole entry partner, the tested form may be a part): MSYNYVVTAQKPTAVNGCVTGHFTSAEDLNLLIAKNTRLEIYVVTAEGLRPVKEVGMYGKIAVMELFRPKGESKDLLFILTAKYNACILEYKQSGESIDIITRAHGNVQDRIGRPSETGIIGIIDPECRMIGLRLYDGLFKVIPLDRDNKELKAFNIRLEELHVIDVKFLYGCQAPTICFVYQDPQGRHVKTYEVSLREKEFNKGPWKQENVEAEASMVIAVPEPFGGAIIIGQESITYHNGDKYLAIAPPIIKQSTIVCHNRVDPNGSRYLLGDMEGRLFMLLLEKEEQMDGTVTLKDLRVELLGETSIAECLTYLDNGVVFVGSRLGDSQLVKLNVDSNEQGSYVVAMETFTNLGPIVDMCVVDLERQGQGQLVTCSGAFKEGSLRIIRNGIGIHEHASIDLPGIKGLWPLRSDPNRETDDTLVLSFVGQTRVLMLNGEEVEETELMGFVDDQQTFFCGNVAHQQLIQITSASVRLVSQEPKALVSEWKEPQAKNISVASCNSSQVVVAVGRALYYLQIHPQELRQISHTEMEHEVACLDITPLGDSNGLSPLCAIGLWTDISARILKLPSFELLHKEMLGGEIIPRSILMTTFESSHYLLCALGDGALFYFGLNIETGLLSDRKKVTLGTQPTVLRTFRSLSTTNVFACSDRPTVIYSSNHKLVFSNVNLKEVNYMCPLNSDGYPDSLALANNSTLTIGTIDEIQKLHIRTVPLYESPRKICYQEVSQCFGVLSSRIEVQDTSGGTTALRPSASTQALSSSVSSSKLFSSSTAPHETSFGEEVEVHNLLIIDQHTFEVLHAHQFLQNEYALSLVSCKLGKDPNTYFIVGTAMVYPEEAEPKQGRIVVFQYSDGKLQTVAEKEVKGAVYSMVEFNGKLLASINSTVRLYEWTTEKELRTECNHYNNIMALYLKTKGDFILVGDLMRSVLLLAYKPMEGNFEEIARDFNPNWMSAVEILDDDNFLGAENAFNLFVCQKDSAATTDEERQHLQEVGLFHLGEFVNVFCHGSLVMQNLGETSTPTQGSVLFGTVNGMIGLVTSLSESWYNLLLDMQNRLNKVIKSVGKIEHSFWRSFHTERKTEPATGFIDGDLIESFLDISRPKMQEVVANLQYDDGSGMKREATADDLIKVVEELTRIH
Description: (§1) Polycistronic plasmids were constructed for the mammalian expression of fluorescent reporter fusions of human transcription factors IKZF1 (Ikaros), IKZF2 (Helios), and IKZF3 (Aiolos). The respective protein sequences had their C-terminal end joined to a GGGGS linker repeated three times followed by mNeonGreen, P2A sequence, and mScarlet. The DNA sequences of the open reading frames are as follows:
(§2) IKZF1, IKZF2, and IKZF3 constructs were cloned into the UCOE Hygromycin expression vectors (Millipore Sigma). Reporter constructs were transfected using cationic lipid reagents into adherent HEK 293T cells and stable integrants were selected by treatment with 200 μg/mL hygromycin B. Clonal populations were obtained from the population of stable integrants either by limiting dilution or fluorescence activated cell sorting.
(§3) The clonal stable cell lines were maintained under constant 200 μg/mL hygromycin B selection while being passaged for use in the degradation assays. […] The fluorescence intensity of the IKZF1/2/3-mNeonGreen (FITC channel) and mScarlet (PE channel) reporters were routinely analyzed by flow cytometry to confirm consistent expression levels between experiments.
(§4) The IKZF1/IKZF2/IKZF3 degradation assays were carried out by harvesting the HEK 293T reporter cell lines and resuspending the cells in media formulated for reduced background fluorescence (FluoroBrite; Thermo Fisher). The respective cell lines were seeded at a density of 4000 cells/well into black-walled 384-well optical grade assay tissue culture plates. The cells were incubated overnight at 37° C. to allow for attachment to the assay plate. Dilutions of the compounds were prepared in DMSO from 10 mM compound stocks. The assay plates were treated with appropriate concentrations of the compounds by dispensing the DMSO dilutions in quadruplicate wells with an upper limit of 0.5% final DMSO.
(§5) After 24 hour incubation with the compounds, the assay plates were imaged on an ImageXpress Pico microscopy system (cells maintained at 37° C. during imaging) to obtain the fluorescent readouts. The assay plates were imaged in the FITC and Tetramethylrhodamine (TRITC) channels to obtain the mNeonGreen fluorescence intensity (reporter degradation data) and mScarlet fluorescence intensity (for cell segmentation). 293T-IKZF1 and 293T-IKZF3 reporter cell lines were imaged with exposures of 500 milliseconds (ms) for both FITC and TRITC channels, while the 293T-IKZF2 reporter cell line was imaged with exposures of 1000 ms for FITC and 1250 ms for TRITC. The resulting data was analyzed with Cell Reporter Xpress software using the 2-channel cell scoring analysis with a “percent positive” readout. The TRITC channel was selected for the “nuclei” segmentation with a threshold of 20 while the FITC channel was selected for the “Marker 1” segmentation and a threshold of 100 for the IKZF and IKZF3 reporter lines. […] The minimum segmentation width was set to 6 micrometers and the maximum segmentation width was set to 15 micrometers for all cell lines. The DC50 calculations were determined by regression to best fit four-parameter logistic curves using GraphPad Prism.

IKZF1 (Ikaros) = IKZF1 (Ikaros) (Homo sapiens (Human), UniProt Q13422+Q96SW2); assay: IKZF1 reporter degradation assay (HEK 293T IKZF1-mNeonGreen reporter cell line); assay type: cell-based; details: HEK 293T reporter cells, 24 hour incubation
Sequence of IKZF1 (Ikaros) (Q13422 whole entry): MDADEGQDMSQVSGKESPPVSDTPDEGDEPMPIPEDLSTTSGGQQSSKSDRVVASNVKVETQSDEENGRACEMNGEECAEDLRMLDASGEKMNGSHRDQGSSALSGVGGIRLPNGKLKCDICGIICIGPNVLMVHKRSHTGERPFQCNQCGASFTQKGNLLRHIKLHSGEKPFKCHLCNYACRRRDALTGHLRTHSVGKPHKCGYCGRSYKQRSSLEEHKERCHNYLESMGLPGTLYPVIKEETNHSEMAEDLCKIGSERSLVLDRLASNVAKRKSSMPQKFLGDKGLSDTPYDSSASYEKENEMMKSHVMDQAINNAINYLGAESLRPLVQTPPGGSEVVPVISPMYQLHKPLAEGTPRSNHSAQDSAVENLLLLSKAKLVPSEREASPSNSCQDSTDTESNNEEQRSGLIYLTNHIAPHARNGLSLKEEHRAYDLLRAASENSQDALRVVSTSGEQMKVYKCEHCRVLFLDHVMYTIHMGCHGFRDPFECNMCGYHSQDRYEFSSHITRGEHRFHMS
Sequence of IKZF1 (Ikaros) (Q96SW2 whole entry): as the sequence (Q96SW2 whole entry, the tested form may be a part) above
Sequence of IKZF1 (Ikaros) (Q16531 whole entry partner): as the sequence (Q16531 whole entry partner, the tested form may be a part) above
Description: as §1, §2, §3, §4, §5

IKZF3 (Aiolos) = IKZF3 (Aiolos) (Homo sapiens (Human), UniProt Q96SW2+Q9UKT9); assay: IKZF3 reporter degradation assay (HEK 293T IKZF3-mNeonGreen reporter cell line); assay type: cell-based; details: HEK 293T reporter cells, 24 hour incubation
Sequence of IKZF3 (Aiolos) (Q9UKT9 whole entry): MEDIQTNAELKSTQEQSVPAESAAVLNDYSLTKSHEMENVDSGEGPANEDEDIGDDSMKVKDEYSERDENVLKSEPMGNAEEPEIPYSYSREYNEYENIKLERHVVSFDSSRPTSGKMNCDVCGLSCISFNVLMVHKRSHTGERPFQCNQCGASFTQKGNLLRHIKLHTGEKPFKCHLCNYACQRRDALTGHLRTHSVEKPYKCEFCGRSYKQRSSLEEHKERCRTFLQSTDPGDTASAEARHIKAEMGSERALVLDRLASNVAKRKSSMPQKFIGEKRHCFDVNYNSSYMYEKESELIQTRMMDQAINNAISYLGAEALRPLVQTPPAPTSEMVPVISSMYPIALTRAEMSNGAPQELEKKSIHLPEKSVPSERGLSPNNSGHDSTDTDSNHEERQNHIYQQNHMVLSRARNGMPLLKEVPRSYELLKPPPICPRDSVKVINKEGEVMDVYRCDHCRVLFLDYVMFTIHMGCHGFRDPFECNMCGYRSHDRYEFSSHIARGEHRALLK
Sequence of IKZF3 (Aiolos) (Q96SW2 whole entry): as the sequence (Q96SW2 whole entry, the tested form may be a part) above
Sequence of IKZF3 (Aiolos) (Q16531 whole entry partner): as the sequence (Q16531 whole entry partner, the tested form may be a part) above
Description: as §1, §2, §3, §4, §5

[1] = molecular target: human E3 ligase component cereblon (CRBN) (Homo sapiens (Human), UniProt Q96SW2); assay: Cereblon (CRBN) target engagement, NanoBRET TE Intracellular E3 Ligase Assay in transfected HEK-293T cells
Sequence of human E3 ligase component cereblon (CRBN) (Q96SW2 whole entry): as the sequence (Q96SW2 whole entry, the tested form may be a part) above
Sequence of human E3 ligase component cereblon (CRBN) (Q16531 whole entry partner): as the sequence (Q16531 whole entry partner, the tested form may be a part) above
Method: HEK-293T cells were harvested ca. 75% confluent with trypsin and plated (500,000 cells/well) in a 6-well tissue culture plate in 2 mL of Dulbecco's Modified Eagle Medium (DMEM)^+10% Fetal Bovine Serum (FBS) and incubated overnight at 37° C.
The NanoLue-CRBN fusion vector (Nluc-CRBN; Promega) contains the coding region of human E3 ligase component cereblon (CRBN) fused to the C-terminus of the NanoLuc luciferase coding region. A mixture of 10 ng Nluc-CRBN and 990 ng DDB1 Expression Vector (Promega) was added to 125 μL Opti-Minimum Essential Medium (Opti-MEM™; Thermo Fisher) along with 2 μL P3000 reagent (Thermo Fisher) in a 1.5 mL epppendorf tube. This solution was added to Lipofectamine 3000 transfection reagent (5 μL; Thermo Fisher) in Opti-MEM (125 μL), mixed well, and incubated for 15 minutes at room temperature. The transfection mixture was added dropwise to cells and incubated overnight at 37° C., 5% CO2. Following transfection, cells were washed once with PBS, and trypsin (250 μL) was added and incubated 30-45 see to dislodge cells. Complete media (2 mL) was added to resuspend cells to form a single cell suspension. Cells were centrifuged at 320×g for 5 min at room temperature, the supernatant was removed, and the cell pellet resuspended in Opti-MEM (3 mL; wash step repeated ×2). After final resuspension in 5 mL Opti-MEM, cells were counted and resuspended at 200,000 cells/mL in Opti-MEM.
Cereblon target engagement was monitored by Bioluminescence Resonance Energy Transfer (BRET) in transfected HEK-293T cells using the NanoBRET TE Intracellular E3 Ligase Assay (Promega). Briefly, 384-well plates (white opaque plates, Corning 3574, low binding surface) were seeded with transfected HEK-293T cells (38 μl/well). 2 μL of 10 μM CRBN tracer (diluted 1:5 in Tracer Dilution Buffer) was added to each well. Plates were centrifuged at 320×g for 1 min at room temperature. […] Plates were shaken for 2 minutes on a microplate shaker to mix compounds. Plates were centrifuged at 320×g for 1 min at room temperature, and subsequently incubated for 2 hours at 37° C.
After incubation, plates were allowed to cool to room temperature for 15 minutes. 20 μL of 3X Complete NanoBRET™ Nano-Glo® Substrate plus Inhibitor Solution (Promega, 1:166 Substrate and 1:500 dilution of Extracellular NanoLuc® Inhibitor diluted in Opti-MEM) were added to each well, Plates were incubated with shaking at room temperature for 3 minutes covered with foil. Plates were read on a CLARIOstar microplate reader (BMG LabTech), measuring at 450 nm (donor emission) and 610 nm (acceptor emission). The IC50 values were determined by regression to best fit four-parameter logistic curves using GraphPad Prism.

[2] = Table 3, HEK 293T reporter cells
[3] = second (untitled) table after Table 3
[4] = Table 3, 2 hours at 37° C., read-out: CRBN Binding EC50
[5] = second (untitled) table after Table 3, read-out: CRBN Binding EC50

Sequence of GSPT1 (P15170 whole entry): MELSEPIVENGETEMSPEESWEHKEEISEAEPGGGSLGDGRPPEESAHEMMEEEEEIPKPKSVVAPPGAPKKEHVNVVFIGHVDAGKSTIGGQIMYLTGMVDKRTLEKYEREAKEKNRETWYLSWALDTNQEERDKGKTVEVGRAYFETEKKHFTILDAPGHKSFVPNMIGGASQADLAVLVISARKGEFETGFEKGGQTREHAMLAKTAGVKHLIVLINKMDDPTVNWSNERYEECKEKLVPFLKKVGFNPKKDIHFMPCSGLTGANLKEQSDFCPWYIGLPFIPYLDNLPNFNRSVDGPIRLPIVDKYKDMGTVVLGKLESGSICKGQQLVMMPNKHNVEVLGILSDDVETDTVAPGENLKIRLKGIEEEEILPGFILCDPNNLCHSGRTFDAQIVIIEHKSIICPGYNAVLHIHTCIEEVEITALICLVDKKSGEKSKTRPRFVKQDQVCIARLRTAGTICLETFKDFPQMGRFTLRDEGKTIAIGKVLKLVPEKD
Sequence of GSPT1 (Q96SW2 whole entry): as the sequence (Q96SW2 whole entry, the tested form may be a part) above
Sequence of GSPT1 (Q16531 whole entry partner): as the sequence (Q16531 whole entry partner, the tested form may be a part) above

Structure (SMILES) | inhibition at 1 µM (IKZF2 (Helios); [2]) [%] | inhibition at 1 µM (IKZF2 (Helios); [3]) [%] | EC50 [1, 4] [µM] | EC50 [1, 5] [µM] | other results
N#CC1(C2CN([C@H]3CCCC[C@@H]3Oc3ccc4c(c3)CN(C3CCC(=O)NC3=O)C4=O)C2)CCC1 (stereo partly drawn) [Compound 23, 1-(1-((1S,2S)-2-((2-(2,6-dioxopiperidin-3-yl)-1-oxoisoindolin-5-yl)oxy)cyclohexyl)azetidin-3-yl)cyclobutane-1-carbonitrile] | 87.4 | 87.4 |  |  | DC50 (GSPT1): > 30 µM; DC50 (IKZF2 (Helios); HEK 293T reporter cells): 0.003 µM; DC50 (IKZF1 (Ikaros)): > 30 µM; DC50 (IKZF3 (Aiolos)): > 30 µM
COC1CCC(C2CN([C@H]3CCCC[C@@H]3Oc3ccc4c(c3)CN(C3CCC(=O)NC3=O)C4=O)C2)CC1 (stereo partly drawn) [Compound 7, 3-(5-(((1S,2S)-2-(3-((cis)-4-methoxycyclohexyl)azetidin-1-yl)cyclohexyl)oxy)-1-oxoisoindolin-2-yl)piperidine-2,6-dione] | 80.1 |  |  |  | IKZF2% Degradation @ 1 μM (IKZF2 (Helios); [3]): 80.1%
O=C1NC(=O)C2(N3Cc4cc(O[C@H]5CCCC[C@@H]5N5CC(C6CCC(F)(F)CC6)C5)ccc4C3=O)CC1C2 [Compound 15, 1-(5-(((1S,2S)-2-(3-(4,4-difluorocyclohexyl)azetidin-1-yl)cyclohexyl)oxy)-1-oxoisoindolin-2-yl)-3-azabicyclo[3.1.1]heptane-2,4-dione] |  |  | 6.21 | 6.21 | 
COC1CCC(C2CN([C@H]3CCCC[C@@H]3Oc3ccc4c(c3)CN(C35CC(C3)C(=O)NC5=O)C4=O)C2)CC1 (stereo partly drawn) [Compound 11, 1-(5-(((1S,2S)-2-(3-((cis)-4-methoxycyclohexyl)azetidin-1-yl)cyclohexyl)oxy)-1-oxoisoindolin-2-yl)-3-azabicyclo[3.1.1]heptane-2,4-dione] |  |  | > 10 | > 10 | 
COC1CCC(C2CN([C@H]3CCC[C@@H]3Oc3ccc4c(c3)CN(C3CCC(=O)NC3=O)C4=O)C2)CC1 (stereo partly drawn) [Compound 10, 3-(5-(((1S,2S)-2-(3-((trans)-4-methoxycyclohexyl)azetidin-1-yl)cyclopentyl)oxy)-1-oxoisoindolin-2-yl)piperidine-2,6-dione] |  |  |  |  | IKZF2% Degradation @ 1 μM (IKZF2 (Helios); [2]): 80.8%; IKZF2% Degradation @ 1 μM (IKZF2 (Helios); [3]): 80.8%

Further lines, with some results ahead:

inhibition at 1 µM (IKZF2 (Helios); [2]) [%] | inhibition at 1 µM (IKZF2 (Helios); [3]) [%] | EC50 [1, 4] [µM] | EC50 [1, 5] [µM] | Structure (SMILES) | other results
 |  | > 10 | > 10 | COC1CCC(C2CN([C@H]3CCC[C@@H]3Oc3ccc4c(c3)CN(C35CC(C3)C(=O)NC5=O)C4=O)C2)CC1 (stereo partly drawn) [Compound 12, 1-(5-(((1S,2S)-2-(3-((cis)-4-methoxycyclohexyl)azetidin-1-yl)cyclopentyl)oxy)-1-oxoisoindolin-2-yl)-3-azabicyclo[3.1.1]heptane-2,4-dione] | 
 |  | > 10 | > 10 | O=C1NC(=O)C2(N3Cc4cc(O[C@H]5CCC[C@@H]5N5CC(C6CCC(F)(F)CC6)C5)ccc4C3=O)CC1C2 [Compound 14, 1-(5-(((1S,2S)-2-(3-(4,4-difluorocyclohexyl)azetidin-1-yl)cyclopentyl)oxy)-1-oxoisoindolin-2-yl)-3-azabicyclo[3.1.1]heptane-2,4-dione] | 
 | 80.1 |  |  | COC1CCC(C2CN([C@H]3CCCC[C@@H]3Oc3ccc4c(c3)CN(C3CCC(=O)NC3=O)C4=O)C2)CC1 (stereo partly drawn) [Compound 8, 3-(5-(((1S,2S)-2-(3-((trans)-4-methoxycyclohexyl)azetidin-1-yl)cyclohexyl)oxy)-1-oxoisoindolin-2-yl)piperidine-2,6-dione] | IKZF2% Degradation @ 1 μM (IKZF2 (Helios); [2]): 80.1%
77.7 | 77.7 |  |  | COC1CCC(C2CN([C@H]3CCC[C@@H]3Oc3ccc4c(c3)CN(C3CCC(=O)NC3=O)C4=O)C2)CC1 (stereo partly drawn) [Compound 9, 3-(5-(((1S,2S)-2-(3-((cis)-4-methoxycyclohexyl)azetidin-1-yl)cyclopentyl)oxy)-1-oxoisoindolin-2-yl)piperidine-2,6-dione] | 
